Laboratory results reported in patent US20140011870A1, “Methods of Treating Obesity Using an Effective Dose of a METAP-2 Inhibitor” (Zafgen, Inc., priority 2010, published 2014).

Key:
[1] = Body weight in obese patients, twice weekly intravenous administration (clinical trial); type: in vivo, human; settings: for Dose at which weight loss efficacy is obtained: administered twice weekly
Procedure: Obese patients were treated in three cohorts with intravenous administration of a formulation of the compound 6-O-(4-dimethylaminoethoxy)cinnamoyl fumagillol oxalate. The compound was intravenously administered to each patient of a cohort (except for a placebo cohort) twice weekly for at least 26 days. Each of patients in the three non-placebo cohorts received either 0.1 mg/m^2 (cohort 1); 0.3 mg/m^2 (cohort 2); or 0.9 mg/m^2 (cohort 3) doses of the compound at the time of administration. The trial was conducted under the appropriate government and medical supervision. […] Table 1 summarizes body weight determination of the 9 patients in the 0.9 mg/m^2 cohort on the day of the first dose and prior to a second dose administered four days later. […] FIG. 1 depicts the body weight change (loss) as a percent before each administration of the biweekly dose for the 0.9 mg/m^2 cohort. FIG. 2 depicts the Visual Analog Scale reports of hunger decline about 50% following successive biweekly dose administration for the 0.9 mg/m^2 cohort. […] All of the subjects of the trial described in Example 1 received doses ranging from 1.8 to 2.2 mg with each administration (given twice weekly). However, weight change of was not strictly associated with dose delivered. Instead, response was strongly associated with dose administered per unit excess body weight, as compared to weight change associated with dose delivered per unit body weight.

[2] = tested on: adiponectin; test: Adiponectin levels in the serum of patients undergoing the trial; type: in vivo, human; settings: with treatment
Procedure: (§1) Obese patients were treated in three cohorts with intravenous administration of a formulation of the compound 6-O-(4-dimethylaminoethoxy)cinnamoyl fumagillol oxalate. The compound was intravenously administered to each patient of a cohort (except for a placebo cohort) twice weekly for at least 26 days. Each of patients in the three non-placebo cohorts received either 0.1 mg/m^2 (cohort 1); 0.3 mg/m^2 (cohort 2); or 0.9 mg/m^2 (cohort 3) doses of the compound at the time of administration. The trial was conducted under the appropriate government and medical supervision. Levels of adiponectin in the serum of patients undergoing the trial were also measured.

[3] = human, in vivo
Procedure: as §1, with “supervision.” for “supervision. Levels of adiponectin in the serum of patients undergoing the trial were also measured.”
Table 1 summarizes body weight determination of the 9 patients in the 0.9 mg/m^2 cohort on the day of the first dose and prior to a second dose administered four days later.
There was a significant correlation between weight loss of patients and maintained exposure of 0.02 ng/mL of the drug above the level of quantitation of the assay 24 hours after dosing, as shown in FIG. 4 (circled data point is exposure of one poor responder below the level of quantitation of assay). The PK profile at day 26 is representative of steady state (see FIG. 5).

[4] = Visual Analog Scale reports of hunger in obese patients; type: in vivo, human; settings: successive biweekly dose administration, 0.9 mg/m^2 cohort
Procedure: FIG. 2 depicts VAS reports of hunger decline by approximately 50% with body weight change (percent) with biweekly dosing of f 0.1 mg/m^2, 0.3 mg/m^2, and 0.9 mg/m^2 (approximately 1.8 to 2.1 mg) of 6-O-(4-dimethylaminoethoxy)cinnamoyl fumagillol in human patients. Values are means (n=6 per dose level) of changes in fasted Visual Analog Scale scores for each visit day vs. Day 1 for population; p values derived from 2-way ANOVA with Bonferroni post-test comparisons (*, p<0.05; **, p<0.01 vs. placebo). Obese patients were treated in three cohorts with intravenous administration of a formulation of the compound 6-O-(4-dimethylaminoethoxy)cinnamoyl fumagillol oxalate. The compound was intravenously administered to each patient of a cohort (except for a placebo cohort) twice weekly for at least 26 days. Each of patients in the three non-placebo cohorts received either 0.1 mg/m^2 (cohort 1); 0.3 mg/m^2 (cohort 2); or 0.9 mg/m^2 (cohort 3) doses of the compound at the time of administration. The trial was conducted under the appropriate government and medical supervision. […] FIG. 1 depicts the body weight change (loss) as a percent before each administration of the biweekly dose for the 0.9 mg/m^2 cohort. FIG. 2 depicts the Visual Analog Scale reports of hunger decline about 50% following successive biweekly dose administration for the 0.9 mg/m^2 cohort.

[5] = listed as 6-O-(4-dimethylaminoethoxy)cinnamoyl fumagillol

- Drug exposure at 24 hours post dose correlated with weight loss [3]: above 0.02 ng/mL
- terminal half life of the drug ([3]; iv): 5.4 h
Compound: CO[C@@H]1[C@H](OC(=O)/C=C/c2ccc(OCCN(C)C)cc2)CC[C@]2(CO2)[C@H]1[C@@]1(C)O[C@@H]1CC=C(C)C.O=C(O)C(=O)O [6-O-(4-dimethylaminoethoxy)cinnamoyl fumagillol oxalate]
- Weight loss efficacy at low doses ([1]; 0.1 and 0.3 mg/m^2, twice weekly): Lack of efficacy
- body weight loss over 26 days of exposure ([1]; 7 of the 9 subjects treated at 0.9 mg/m^2, twice weekly): 3-4%
- Dose at which weight loss efficacy is obtained [1]: ≥ 0.02 mg/kg
- Dose at which weight loss efficacy is obtained [1, 5]: ~0.02 mg/kg
- Dose per kg of excess body weight needed to see effects ([1]; obese patients, twice weekly): > 40 μg of drug per kg of excess body weight
- Increase in adiponectin concentrations [2]: over 60%
- Visual Analog Scale reports of hunger decline [4]: about 50%
- Visual Analog Scale reports of hunger decline [4, 5]: approximately 50%
